Several values for one entry are separate records, joined by “and”; a condition that tells them apart may be missing. Identical values can stand only once. Like-named read-outs stand apart in the source and are kept apart here.
Tests used:
gastric acid secretion [1] = experiment: inhibition of gastric acid secretion in the rat (method of Lippmann); type: in vivo; conditions: unit inferred, read-out: Ed50 for inhibiting gastric acid secretion
Experimental: A comparison of the ED50 for inhibiting indomethacin-induced ulcers and the ED50 for inhibiting gastric acid secretion for compounds of formula 1 is exemplified in the following list. Both ED50 's are determined in the rat. The ED50 for inhibiting indomethacin-induced ulcers is obtained according to the method of Example 1. The ED50 for inhibiting gastric acid secretion is obtained according to the method of Lippmann, cited above.

[2] = test system: indomethacin-induced ulcers; experiment: indomethacin-induced ulcer formation in rats (procedure of Lee et al.); type: in vivo, rat; conditions: for ED50: po; for Relative Potency ± S.E.M.: relative to 2-(3-hydroxy-3-methyloctyl)-5-oxocyclopentaneheptanoic acid, procedure of Example 1
Description: The gastrointestinal side effect inhibiting property of the compositions of the present invention are demonstrable in standard pharmacological tests. For example, in procedures similar to the in vivo test described by Y. H. Lee et al., cited above, for evaluating the effects of a test compound on indomethacin-induced ulcers in the rat, the compounds of formula 1 are shown to be effective, see Examples 1 and 2.
By following the procedure of Lee et al., cited above, for the production of the indomethacin-induced ulcer in rats, the property of the compounds of formula 1 to inhibit such ulcers is readily demonstrable. More specifically: male albino rats (170 - 190 g; Sprague-Dawley strain, Canadian Breeding Laboratories), caged individually, were fasted 24 hr with free access to water until the start of the experiment. Indomethacin was given intraperitoneally. The animals were killed 5 hr later and the ulcer formation in the glandular portion of the stomach determined. The compound of formula 1 was administered perorally immediately after the indomethacin. The percent inhibition of ulcer formation versus the semilogarithm of the dose (mg/kg) was plotted and the dose at which 50% inhibition occurred (ED50) was read from the graph.
Analysis of variance and regression study were used in the evaluation of the data.
Indomethacin was administered (0.5 ml) as an aqueous suspension (2 drops of polysorbate 80 per 14 ml of H2 O). Polysorbate 80 is a mixture of sorbitol and its anhydrides copolymerized with ethylene oxide. The compounds of formula 1 were given (0.2 ml) in a 0.2% sodium carboxymethyl cellulose aqueous suspension.
The results of such a test for 2-(3-hydroxy-3-methyloctyl)-5-oxocyclopentaneheptanoic acid to inhibit the ulcer formation induced by 20 mg/kg i.p. of indomethacin are given in the following table. For comparative purposes the results obtained for propantheline bromide are also included.
By following the procedure of Example 1 the effects of compounds of formula 1 other than 2-(3-hydroxy-3-methyloctyl)-5-oxocyclopentaneheptanoic acid on indomethacin-induced ulcers are demonstrable. Accordingly, the results obtained with such other compounds of formula 1 are exemplified by the following list in which the relative potency of each compound with respect to 2-(3-hydroxy-3-methyloctyl)-5-oxocyclopentaneheptanoic acid is noted.

diarrhea = diarrhea in female mice or rats, peroral; type: in vivo, mouse; conditions: 60 minutes; for diarrheal effect: female mice, 240 mg/kg peroral
[3] = test system: phenylbutazone-induced ulcers; experiment: phenylbutazone-induced ulcer formation in rats; type: in vivo, rat; conditions: for % Inhibition of ulcer formation / Ulcers Formed, Mean ± S.E.M.: phenylbutazone 300 mg/kg p.o., 18 hr
[4] = cited from earlier work; for stability: natural prostaglandins, T.O. Oesterling et al.
ulcers = conditions: man; N.O. Rothermich 1966; cited from earlier work
[5] = test system: indomethacin-induced ulcers; conditions: cited from earlier work
diarrheal effect = conditions: larger doses; Misiewicz et al. 1969; cited from earlier work
gastric acid secretion [6] = conditions: W. Lippmann 1971; cited from earlier work
[7] = 5 h, rat, method of Example 1 (dose in mg/kg there), unit inferred, read-out: ED50 for inhibiting indomethacin-induced ulcer
[8] = Rattus norvegicus, indomethacin 20 mg/kg i.p., 5 hr, read-out: ED50 (dose at which 50% inhibition of ulcer formation occurred)

CCCCC(C)(C)C(O)C=C[C@@H]1CCC(=O)[C@H]1C/C=C\CCCC(=O)O (relative stereo) [trans,cis-7-[2-(3-Hydroxy-4,4-dimethyl-1-octenyl)-5-oxocyclopentyl]-5-heptenoic acid]
ED50 (gastric acid secretion [1]): ~1 mg/kg
ED50 [2, 7]: ~0.02 mg/kg
Relative Potency ± S.E.M. [2]: 4.8

CCCCCC(O)C=C[C@@H]1CCC(=O)[C@H]1CCCCCCC(=O)O (relative stereo) [trans-2-(3-Hydroxy-1-octenyl)-5-oxocyclopentaneheptanoic acid]
Relative Potency ± S.E.M. [2]: 0.74 ± 0.20

CCCCCC(C)(O)C=C[C@@H]1CCC(=O)[C@H]1CCCCCCC(=O)O (relative stereo) [trans-2-(3-Hydroxy-3-methyl-1-octenyl)-5-oxocyclopentaneheptanoic acid]
Relative Potency ± S.E.M. [2]: 1.07 ± 0.33

CCCCCC(O)CC[C@@H]1CCC(=O)[C@H]1CCCCCCC(=O)O (relative stereo) [trans-2-(3-Hydroxyoctyl)-5-oxocyclopentaneheptanoic acid]
Relative Potency ± S.E.M. [2]: 0.45 ± 0.12 and 0.64 ± 0.20

O=C(O)CCCCCC[C@@H]1C(=O)CC[C@H]1C=CC(O)CC1CCCCC1 (relative stereo) [trans-2-(4-Cyclohexyl-3-hydroxy-1-butenyl)-5-oxocyclopentaneheptanoic acid]
Relative Potency ± S.E.M. [2]: 0.13 ± 0.06

CCCCCC(O)C=C[C@@H]1CCC(=O)[C@H]1C/C=C\CCCC(=O)O (single isomer, unassigned) [trans,cis-7-[2-(3-Hydroxy-1-octenyl)-5-oxocyclopentyl]-5-hep] [trans,cis-7-[2-(3-Hydroxy-1-octenyl)-5-oxocyclopentyl]-5-heptenoic acid]
Relative Potency ± S.E.M. [2]: 0.37 ± 0.21 and 0.37 ± 0.14

CCCCCC(C)(O)CCC1CCC(=O)C1CCCCCCC(=O)O (single isomer, unassigned; (+)) [(+)-2-(3-Hydroxy-3-methyloctyl)-5-oxocyclopentaneheptanoic a] [(+)-2-(3-Hydroxy-3-methyloctyl)-5-oxocyclopentaneheptanoic acid]
diarrheal effect (diarrhea): do not cause an appreciable diarrheal effect
Relative Potency ± S.E.M. [2]: 1.02 ± 0.42

CCCCCC(C)(O)CCC1CCC(=O)C1CCCCCCC(=O)O (single isomer, unassigned; (+)) [(+)-2-(3-Hydroxy-3-methyloctyl)-5-oxocyclopentaneheptanoic acid]
ED50 [2, 7]: 0.11 mg/kg

CCCCCC(C)(O)CCC1CCC(=O)C1CCCCCCC(=O)O (single isomer, unassigned; (-)) [(-)-2-(3-Hydroxy-3-methyloctyl)-5-oxocyclopentaneheptanoic a] [(-)-2-(3-Hydroxy-3-methyloctyl)-5-oxocyclopentaneheptanoic acid]
diarrheal effect (diarrhea): do not cause an appreciable diarrheal effect
ED50 for inhibiting indomethacin-induced ulcer ([2]; rat, method of Example 1 (dose in mg/kg there), unit inferred, 300 min): 0.11 mg/kg
Relative Potency ± S.E.M. [2]: 1.01 ± 0.40

CCCCCC(C)(O)CCC1CCC(=O)C1CCCCCCC(=O)O (stereo not shown) [2-(3-hydroxy-3-methyloctyl)-5-oxocyclopentaneheptanoic acid]
ED50 (gastric acid secretion [1]): 4.3 mg/kg
diarrheal effect (diarrhea): do not cause an appreciable diarrheal effect
% Inhibition of ulcer formation ([2]; 0.075 mg/kg p.o., indomethacin 20 mg/kg i.p., 5 hr): 43%
Ulcers Formed, Mean ± S.E.M. ([2]; 0.075 mg/kg p.o., indomethacin 20 mg/kg i.p., 5 hr, n=9, P < 0.01): 5.9 ± 0.8
% Inhibition of ulcer formation ([2]; 0.15 mg/kg p.o., indomethacin 20 mg/kg i.p., 5 hr): 56%
Ulcers Formed, Mean ± S.E.M. ([2]; 0.15 mg/kg p.o., indomethacin 20 mg/kg i.p., 5 hr, n=9, P < 0.01): 4.6 ± 0.6
% Inhibition of ulcer formation ([2]; 0.30 mg/kg p.o., indomethacin 20 mg/kg i.p., 5 hr): 69%
Ulcers Formed, Mean ± S.E.M. ([2]; 0.30 mg/kg p.o., indomethacin 20 mg/kg i.p., 5 hr, n=9, P < 0.001): 3.2 ± 0.5
ED50 [2, 8]: 0.11 mg/kg
ED50 [2, 7]: 0.11 mg/kg
% Inhibition of ulcer formation ([3]; 7.5 mg/kg p.o.): 24%
Ulcers Formed, Mean ± S.E.M. ([3]; 7.5 mg/kg p.o., n=10): 4.1 ± 1.0
% Inhibition of ulcer formation ([3]; 15 mg/kg p.o.): 48%
Ulcers Formed, Mean ± S.E.M. ([3]; 15 mg/kg p.o., n=9): 2.8 ± 0.6
% Inhibition of ulcer formation ([3]; 30 mg/kg p.o.): 78%
Ulcers Formed, Mean ± S.E.M. ([3]; 30 mg/kg p.o., n=9): 1.2 ± 0.5
ED50 ([3]; Rattus norvegicus, po, over an 18 hr period): ~15 mg/kg

CCCCC[C@H](O)/C=C/[C@@H]1[C@@H](CCCCCCC(=O)O)[C@@H](O)C[C@H]1O [PGF1α]
stability [4]: relatively unstable

COc1ccc2c(c1)c(CC(=O)O)c(C)n2C(=O)c1ccc(Cl)cc1 [indomethacin]
correlation between dosage and occurrence of ulcers (ulcers): found a correlation between indomethacin dosage and the occurence of ulcers in man
correlation between dosage and occurrence of ulcers ([5]; rat, Lee et al.): found a similar correlation in the rat

CC(C)[N+](C)(CCOC(=O)C1c2ccccc2Oc2ccccc21)C(C)C [propantheline bromide, reference compound]
reduction of the ulcerogenic activity of indomethacin ([5]; rats, Lee et al. 1971, dose relative to usual therapeutic dose): proved to be effective but only when administered at does much higher than their usual therapeutic dose
% Inhibition of ulcer formation ([2]; 1.5 mg/kg p.o., indomethacin 20 mg/kg i.p., 5 hr): 36%
Ulcers Formed, Mean ± S.E.M. ([2]; 1.5 mg/kg p.o., indomethacin 20 mg/kg i.p., 5 hr, n=9, P < 0.05): 6.9 ± 0.9
% Inhibition of ulcer formation ([2]; 3.0 mg/kg p.o., indomethacin 20 mg/kg i.p., 5 hr): 52%
Ulcers Formed, Mean ± S.E.M. ([2]; 3.0 mg/kg p.o., indomethacin 20 mg/kg i.p., 5 hr, n=9, P < 0.01): 5.0 ± 1.0
% Inhibition of ulcer formation ([2]; 6.0 mg/kg p.o., indomethacin 20 mg/kg i.p., 5 hr): 61%
Ulcers Formed, Mean ± S.E.M. ([2]; 6.0 mg/kg p.o., indomethacin 20 mg/kg i.p., 5 hr, n=8, P < 0.01): 4.1 ± 0.9
times less potent than 2-(3-hydroxy-3-methyloctyl)-5-oxocyclopentaneheptanoic acid ([2]; ED50 comparison, p.o., indomethacin-induced ulcers): 27 times
ED50 [2, 8]: 3 mg/kg

CCCCC[C@H](O)/C=C/[C@H]1[C@H](O)CC(=O)[C@@H]1CCCCCCC(=O)O [prostaglandin E1]
diarrheal effect (diarrheal effect): diarrheal effect associated with larger doses
effect on gastric acid secretion (gastric acid secretion [6]): inhibit gastric acid secretion

CCCCC[C@H](O)/C=C/[C@H]1[C@H](O)CC(=O)[C@@H]1C/C=C\CCCC(=O)O [prostaglandin E2]
stability [4]: relatively unstable
dehydration of the 11-hydroxy group ([4]; under both basic and acidic conditions): participates readily in dehydration reactions under both basic and acidic conditions
test animals with diarrhea (diarrhea; 43 mg/kg peroral): 50%

trans-2-(3-Methyl-3-oxooctyl)-5-oxocyclopentaneheptanoic acid
Relative Potency ± S.E.M. [2]: 0.43 ± 0.14
